Values after ≈ are worked out from the molar mass of the structure shown. Like-named read-outs stand apart in the source and are kept apart here.
Assays:
[1] = system: Mycobacterium tuberculosis strain EH4.0 expressing green-fluorescent protein (GFP); experiment: microbe, parasite or virus in culture; assay type: cell-based; conditions: read-out: pIC50 (converted)
[2] = assay type: physicochemical; conditions: 30 μM; for chemical stability (% by LCMS), DMSO: 0 h; for chemical stability (% by LCMS), ACN/H2O / chemical stability (% by LCMS), ACN/0.1N HCl: 48 h; for chemical stability (% by LCMS), ACN/0.1N HCl: pH 1.6
Procedure: Chemical Stability Testing
Preliminary Protocol • Add 3 μl of a 10 mM DMSO stock solution to 1 ml of the following solvents in a 1.5 ml HPLC vial. • DMSO (reference solution) • H2O/Acetonitril 1/1 (assay solution) • 0.1N HCl/Acetonitril 1/1 (assay solution) • Mix well, […] LCMS • Compare the chromatograms of the two assay solutions with the reference solution and report the additional peaks as degradation peaks

[3] = in vivo
[4] = GSH measurement (reactive metabolites); assay type: in vitro ADME
Source text: (§1) The compounds of the invention/examples may have advantages associated with in vitro potency, kill kinetics (i.e. bactericidal effect) in vitro, PK properties, food effect, safety/toxicity (including liver toxicity, coagulation, 5-LO oxygenase), metabolic stability, Ames II negativity, MNT negativity, aqueous based solubility (and ability to formulate) and/or cardiovascular effect e.g. on animals (e.g. anesthetized guinea pig). The data below that was generated/calculated may be obtained using standard methods/assays, for instance that are available in the literature or which may be performed by a supplier (e.g. Microsomal Stability Assay—Cyprotex, Mitochondrial toxicity (Glu/Gal) assay—Cyprotex, as well as literature CYP cocktail inhibition assays). In some instances, GSH was measured (reactive metabolites, glucuronidation) to observe if a dihydrodiol is observed by LCMS (fragmentation ions), which would correspond to a dihydroxylation on the core heterocycle.

[5] = Mitochondrial toxicity (Glu/Gal) assay; assay type: cell-based
Source text: as §1

Ca Ch = conditions: read-out: CVS Ca Ch IC50
AMES II = assay type: cell-based
Source text: as §1

Kinase panel = experiment: Kinase panel; assay type: biochemical
Cyp 3A4 = Cyp 3A4 induction; conditions: at 1 μM
M. tuberculosis H37Rv = conditions: strain M. tuberculosis H37Rv, inside macrophages; cited from earlier work
Na Ch = experiment: CVS Na Ch

Row | SMILES | melting point | IC50 ([1]; Test 1 (and/or Test 2)) | chemical stability (% by LCMS), DMSO [2] | chemical stability (% by LCMS), ACN/H2O [2] | chemical stability (% by LCMS), ACN/0.1N HCl [2] | also measured
1 | CCc1nc2ccc(Cl)cn2c1C(=O)NCc1ccc(N2CCN(S(=O)(=O)C(F)(F)F)C=N2)c(OC)c1 [Compound 25] | 125.56 °C | 10 nM |  |  |  | 
2 | CCC1=NN(c2ccc(CNC(=O)c3c(CC)nc4ncc(C)cn34)cc2F)CCN1S(=O)(=O)C(F)(F)F [Compound 234] |  | 0.324 nM | 96% | 95% | 97% | 
3 | CCc1nc2ncc(C)cn2c1C(=O)NCc1ccc(N2CCN(S(=O)(=O)C(F)(F)F)C(C(C)C)=N2)c(F)c1 [Compound 248] |  | 0.224 nM | 92% | 100% | 100% | 
4 | COCc1nc2ccc(Cl)cn2c1C(=O)NCc1ccc(N2CCN(S(=O)(=O)C(F)(F)F)C=N2)cc1 [Compound 8] | 167.12 °C |  |  |  |  | IC50 [1]: 251 nM
5 | CCc1nc2cc(C)c(C)cn2c1C(=O)NCc1ccc(N2CCN(S(=O)(=O)C(F)(F)F)C(C(C)C)=N2)c(F)c1 [Compound 241] |  | 3.47 nM | 100% | 100% | 100% | 
6 | CC1=NN(c2ccc(CNC(=O)c3c(C(F)(F)F)nc4ccccn34)cc2F)CCN1S(=O)(=O)C(F)(F)F [Compound 252] |  | 1.2 nM | 99% | 99% | 99% | 
7 | CCc1nc2ncc(C)cn2c1C(=O)NCc1ccc(N2CCN(S(=O)(=O)C(F)(F)F)C(C)=N2)c(F)c1 [Compound 251] |  | 0.437 nM | 100% | 100% | 100% | 
8 | CC1=NN(c2ccc(CNC(=O)c3c(C(F)(F)F)nc4ncc(C)cn34)cc2F)CCN1S(=O)(=O)C(F)(F)F [Compound 257] |  | 6.03 nM | 99% | 99% | 99% | 
9 | CCC1=NN(c2ccc(CNC(=O)c3c(C(F)(F)F)nc4ccccn34)cc2F)CCN1S(=O)(=O)C(F)(F)F [Compound 233] |  | 1.07 nM | 99% | 99% | 99% | 
10 | CC1=NN(c2ccc(CNC(=O)c3c(C(F)(F)F)nc4ccc(C)cn34)cc2F)CCN1S(=O)(=O)C(F)(F)F [Compound 253] |  | 1.86 nM | 100% | 100% | 100% | 
11 | O=C(NCc1ccc(N2CCN(S(=O)(=O)C(F)(F)F)C=N2)c(F)c1)c1c(C(F)(F)F)nc2ccccn12 [Compound 152] |  |  |  |  |  | bioavailability [3]: good bioavailaibility; GSH / reactive metabolites [4]: formation of reactive metabolites was blocked; Glu/Gal assay ratio (mitotoxicity) [5]: < 3
12 | CCc1nc2c(F)cc(Cl)cn2c1C(=O)NCc1ccc(N2CCN(S(=O)(=O)C(F)(F)F)C(C(C)C)=N2)c(F)c1 [Compound 238] |  | 1.58 nM | 100% | 100% | 100% | 
13 | CCc1nc2ccc(COC)cn2c1C(=O)NCc1ccc(N2CCN(S(=O)(=O)C(F)(F)F)C=N2)cc1 [Compound 43] | 169.05 °C | 10 nM |  |  |  | 
14 | CCc1nc2ncc(C)cn2c1C(=O)NCc1ccc(N2CCN(S(=O)(=O)C(F)(F)F)C=N2)c(F)c1 [Compound 161] |  |  |  |  |  | IC50 (Ca Ch): > 10000 nM; AMES II (AMES II): negative; bioavailability [3]: good bioavailaibility; Kinase panel (Kinase panel): negative; Cyp 3A4 induction (% control) (Cyp 3A4): 3.0 % control; Glu/Gal assay ratio (mitotoxicity) [5]: < 3
15 | CCc1nc2ccc(Cl)cn2c1C(=O)NCc1ccc(N2CCC(c3ccc(OC(F)(F)F)cc3)CC2)cc1 [Compound Q203] |  |  |  |  |  | MIC50 (M. tuberculosis H37Rv): 0.28 nM (≈ 0.156 ng/mL)
16 | CCc1nc2ccc(Cl)cn2c1C(=O)NCc1ccc(N2CCN(S(C)(=O)=O)C=N2)cc1 [Compound 20] | 209.36 °C |  |  |  |  | IC50 (Ca Ch): > 10000 nM

Row | SMILES | melting point | IC50 ([1]; Test 1 (and/or Test 2)) | chemical stability (% by LCMS), DMSO [2] | chemical stability (% by LCMS), ACN/H2O [2] | chemical stability (% by LCMS), ACN/0.1N HCl [2] | also measured
17 | CCc1nc2ncc(Cl)cn2c1C(=O)NCc1cc(F)c(N2CCN(S(=O)(=O)C(F)(F)F)C=N2)c(F)c1 [Compound 47] | 149.44 °C | 3.16 nM |  |  |  | 
18 | CCc1nc2ccc(C#N)cn2c1C(=O)NCc1ccc(N2CCN(S(=O)(=O)C(F)(F)F)C(OC)=N2)c(F)c1 [Compound 73] | 212.08 °C |  |  |  |  | GSH / reactive metabolites [4]: no measure of GSH; IC50 (Na Ch): > 10000 nM
19 | CCc1nc2ccc(Cl)cn2c1C(=O)NCc1ccc(N2CCN(S(=O)(=O)C(F)(F)F)C=N2)cc1 [Compound 1] | 183.46 °C |  |  |  |  | IC50 (Ca Ch): > 10000 nM; bioavailability [3]: good bioavailability; Glu/Gal assay ratio (mitotoxicity) [5]: < 3
20 | CCc1nc2ccc(Cl)cn2c1C(=O)NCc1ccc(N2CCN(S(=O)(=O)C(F)(F)F)C=N2)cc1F [Compound 16] | 158.1 °C |  |  |  |  | IC50 (Na Ch): > 10000 nM
21 | CCc1nc2ccc(OC)cn2c1C(=O)NCc1ccc(N2CCN(S(=O)(=O)C(F)(F)F)C(OC)=N2)cc1 [Compound 36] | 142.03 °C | 3.98 nM |  |  |  | 
22 | CCc1nc2ccc(C)cn2c1C(=O)NCc1ccc(N2CCN(S(=O)(=O)C(F)(F)F)C(C(N)=O)=N2)cc1 [Compound 260] |  | 32.4 nM | 98% | 100% | 100% | 
23 | CCc1nc2ccc(Cl)cn2c1C(=O)NCc1ccc(N2CCN(S(=O)(=O)C(F)(F)F)C=N2)c(F)c1 [Compound 9] |  |  |  |  |  | IC50 (Na Ch): > 10000 nM
24 | CCc1nc2c(F)cc(Cl)cn2c1C(=O)NCc1ccc(N2CCN(S(=O)(=O)C(F)(F)F)C(C3CC3)=N2)c(F)c1 [Compound 231] |  | 0.891 nM | 98% | 98% | 98% | 
25 | CCc1nc2ncc(Cl)cn2c1C(=O)NCc1ccc(N2CCN(S(=O)(=O)C(F)(F)F)C=N2)cc1 [Compound 13] | 215.87 °C |  |  |  |  | IC50 (Na Ch): > 10000 nM
26 | CCc1nc2ccc(Cl)cn2c1C(=O)NCc1ccc(N2CCN(S(=O)(=O)C(F)(F)F)C(OC)=N2)cc1 [Compound 6] |  |  |  |  |  | IC50 (Na Ch): > 10000 nM; Glu/Gal assay ratio (mitotoxicity) [5]: < 3
27 | CCc1nc2ccc(C)cn2c1C(=O)NCc1ccc(N2CCN(S(=O)(=O)C(F)(F)F)C(C(=O)N(C)C)=N2)cc1 [Compound 259] |  |  | 98% | 100% | 100% | IC50 [1]: 10.7 nM
28 | CCC1=NN(c2ncc(CNC(=O)c3c(CC)nc4ncc(C)cn34)cc2F)CCN1S(=O)(=O)C(F)(F)F [Compound 235] |  | 6.31 nM | 99% | 99% | 98% | 
29 | CCc1nc2ccc(C)cn2c1C(=O)NCc1ccc(N2CCN(S(=O)(=O)C(F)(F)F)C(C(=O)OC)=N2)cc1 [Compound 258] |  | 6.17 nM | 99% | 99% | 100% | 
30 | CCc1nc2ncc(C)cn2c1C(=O)NCc1cnc(N2CCN(S(=O)(=O)C(F)(F)F)C(C)=N2)c(F)c1 [Compound 255] |  | 6.17 nM | 100% | 100% | 98% | 
31 | CC(C)C1=NN(c2ccc(CNC(=O)c3c(C(F)(F)F)nc4ccccn34)cc2F)CCN1S(=O)(=O)C(F)(F)F [Compound 247] |  | 1.38 nM | 96% | 100% | 100% | 
32 | Cc1ccc2nc(C(F)F)c(C(=O)NCc3ccc(N4CCN(S(=O)(=O)C(F)(F)F)C(C(C)C)=N4)c(F)c3)n2c1 [Compound 240] |  | 0.603 nM | 100% | 100% | 100% | 

From US20240199611A1, “ANTIBACTERIAL COMPOUNDS” (JANSSEN SCIENCES IRELAND UNLIMITED COMPANY, priority 2021, published 2024)
